What was measured:
PIK3CG = PIK3CG (UniProt P48736); assay: Inhibition of PIK3CG Kinase Activity
PIK3CD (Human) = PIK3CD (Human) (UniProt O00329); assay: Inhibition of PIK3CD Kinase Activity
PIK3CA (human) = PIK3CA (human) (UniProt P42336); assay: Inhibition of PIK3CA Kinase Activity
PIK3CB (Human) [1] = molecular target: PIK3CB (Human) (UniProt P42338); assay: Assessment of Neutrophil ROS Response in Human Whole Blood; conditions: neutrophils
PIK3CB (Human) [2] = molecular target: PIK3CB (Human) (UniProt P42338); assay: Inhibition of CD9 Antibody Induced Platelet Aggregation
PIK3CB (Human) [3] = molecular target: PIK3CB (Human) (UniProt P42338); assay: Inhibition of U937 Cell Proliferation
PIK3CB (Human) [4] = molecular target: PIK3CB (Human) (UniProt P42338); assay: Inhibition of Platelet Thrombus Formation under Flow
EGFR = EGFR (UniProt P00533)
MAPK14 = MAPK14 (UniProt Q16539)
CDK2 = CDK2 (UniProt P24941)

Chain of PIK3CG (P48736 whole entry, looked up): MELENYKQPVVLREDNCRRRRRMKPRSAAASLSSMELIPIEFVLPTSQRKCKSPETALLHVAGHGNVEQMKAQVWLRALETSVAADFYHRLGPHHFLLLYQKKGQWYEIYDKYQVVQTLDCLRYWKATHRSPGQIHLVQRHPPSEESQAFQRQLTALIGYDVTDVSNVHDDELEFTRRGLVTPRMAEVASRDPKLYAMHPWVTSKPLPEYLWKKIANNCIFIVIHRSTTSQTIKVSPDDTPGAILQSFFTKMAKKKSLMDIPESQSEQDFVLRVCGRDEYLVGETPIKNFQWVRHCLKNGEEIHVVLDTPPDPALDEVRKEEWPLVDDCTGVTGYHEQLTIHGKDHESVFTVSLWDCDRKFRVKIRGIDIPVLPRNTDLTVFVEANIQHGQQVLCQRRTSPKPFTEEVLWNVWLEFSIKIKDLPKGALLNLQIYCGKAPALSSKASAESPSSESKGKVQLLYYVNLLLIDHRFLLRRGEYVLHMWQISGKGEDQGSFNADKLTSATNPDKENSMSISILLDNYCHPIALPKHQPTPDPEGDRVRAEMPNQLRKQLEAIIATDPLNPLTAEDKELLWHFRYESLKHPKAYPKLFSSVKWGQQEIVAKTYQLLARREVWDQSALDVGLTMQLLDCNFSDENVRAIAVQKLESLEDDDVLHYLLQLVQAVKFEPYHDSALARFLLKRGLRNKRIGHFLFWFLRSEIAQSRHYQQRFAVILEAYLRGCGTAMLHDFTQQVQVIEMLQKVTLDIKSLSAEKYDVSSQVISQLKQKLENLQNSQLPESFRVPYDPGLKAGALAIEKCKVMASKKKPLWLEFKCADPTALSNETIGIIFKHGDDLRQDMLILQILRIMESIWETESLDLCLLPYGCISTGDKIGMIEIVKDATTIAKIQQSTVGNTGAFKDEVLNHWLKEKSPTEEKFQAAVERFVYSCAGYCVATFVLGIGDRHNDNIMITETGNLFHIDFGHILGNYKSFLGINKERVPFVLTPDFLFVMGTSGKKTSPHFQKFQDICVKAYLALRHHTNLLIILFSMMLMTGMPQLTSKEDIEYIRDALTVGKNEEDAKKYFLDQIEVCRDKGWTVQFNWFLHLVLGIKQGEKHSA
Chain of PIK3CB (Human) (P42338 whole entry, looked up): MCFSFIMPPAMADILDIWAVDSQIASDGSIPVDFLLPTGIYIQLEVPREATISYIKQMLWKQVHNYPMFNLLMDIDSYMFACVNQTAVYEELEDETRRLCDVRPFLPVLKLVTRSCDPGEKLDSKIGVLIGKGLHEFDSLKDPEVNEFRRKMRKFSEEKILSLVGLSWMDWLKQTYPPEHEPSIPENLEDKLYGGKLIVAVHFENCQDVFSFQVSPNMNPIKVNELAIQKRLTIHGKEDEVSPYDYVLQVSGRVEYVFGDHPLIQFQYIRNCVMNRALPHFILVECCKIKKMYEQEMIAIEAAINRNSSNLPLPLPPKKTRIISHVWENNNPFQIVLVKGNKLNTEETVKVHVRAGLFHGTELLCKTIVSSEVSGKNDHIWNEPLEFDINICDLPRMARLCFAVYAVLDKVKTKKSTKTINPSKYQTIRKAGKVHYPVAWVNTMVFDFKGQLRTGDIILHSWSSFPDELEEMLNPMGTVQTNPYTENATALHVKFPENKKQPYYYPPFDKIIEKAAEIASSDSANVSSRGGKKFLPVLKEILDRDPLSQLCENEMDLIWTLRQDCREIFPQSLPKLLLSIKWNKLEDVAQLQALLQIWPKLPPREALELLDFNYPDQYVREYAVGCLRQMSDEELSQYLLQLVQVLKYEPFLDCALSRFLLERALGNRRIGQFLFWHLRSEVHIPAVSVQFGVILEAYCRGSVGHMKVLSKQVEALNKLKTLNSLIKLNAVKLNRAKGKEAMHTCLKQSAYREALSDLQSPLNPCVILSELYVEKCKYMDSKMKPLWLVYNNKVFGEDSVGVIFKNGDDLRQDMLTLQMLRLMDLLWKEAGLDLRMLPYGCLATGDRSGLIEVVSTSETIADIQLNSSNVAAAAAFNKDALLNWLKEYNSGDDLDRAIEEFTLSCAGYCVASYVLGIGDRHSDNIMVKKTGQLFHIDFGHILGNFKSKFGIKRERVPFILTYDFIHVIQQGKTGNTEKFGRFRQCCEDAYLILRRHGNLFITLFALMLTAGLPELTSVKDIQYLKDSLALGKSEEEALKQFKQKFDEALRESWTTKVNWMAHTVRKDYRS
Chain of PIK3CA (human) (P42336 whole entry, looked up): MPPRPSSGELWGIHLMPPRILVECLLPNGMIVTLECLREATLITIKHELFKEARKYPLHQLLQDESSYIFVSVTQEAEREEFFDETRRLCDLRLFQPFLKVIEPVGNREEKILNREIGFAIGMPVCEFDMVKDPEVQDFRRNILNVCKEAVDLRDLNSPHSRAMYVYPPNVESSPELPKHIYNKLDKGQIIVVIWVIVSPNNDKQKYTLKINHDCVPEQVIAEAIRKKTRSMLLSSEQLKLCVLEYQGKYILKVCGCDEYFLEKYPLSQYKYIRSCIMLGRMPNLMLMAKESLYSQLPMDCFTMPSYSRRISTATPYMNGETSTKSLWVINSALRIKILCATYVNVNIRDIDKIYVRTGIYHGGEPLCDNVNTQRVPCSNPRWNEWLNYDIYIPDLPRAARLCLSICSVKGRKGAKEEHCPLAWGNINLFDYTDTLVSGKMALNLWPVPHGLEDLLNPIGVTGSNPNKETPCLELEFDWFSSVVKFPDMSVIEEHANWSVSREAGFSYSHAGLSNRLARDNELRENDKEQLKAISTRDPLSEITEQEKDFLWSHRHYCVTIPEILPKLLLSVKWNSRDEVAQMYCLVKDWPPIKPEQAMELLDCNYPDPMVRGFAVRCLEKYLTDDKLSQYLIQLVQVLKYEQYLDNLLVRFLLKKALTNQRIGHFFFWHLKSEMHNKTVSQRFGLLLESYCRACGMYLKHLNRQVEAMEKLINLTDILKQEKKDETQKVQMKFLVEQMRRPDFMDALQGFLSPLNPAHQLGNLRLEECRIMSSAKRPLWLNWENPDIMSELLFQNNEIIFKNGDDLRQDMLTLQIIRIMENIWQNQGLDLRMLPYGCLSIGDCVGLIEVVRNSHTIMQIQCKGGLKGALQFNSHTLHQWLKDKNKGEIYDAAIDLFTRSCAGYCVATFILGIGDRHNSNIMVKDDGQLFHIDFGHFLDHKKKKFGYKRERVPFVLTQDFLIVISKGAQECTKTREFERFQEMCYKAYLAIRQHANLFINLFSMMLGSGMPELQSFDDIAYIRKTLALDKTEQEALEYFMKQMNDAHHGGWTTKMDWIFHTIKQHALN
Chain of PIK3CD (Human) (O00329 whole entry, looked up): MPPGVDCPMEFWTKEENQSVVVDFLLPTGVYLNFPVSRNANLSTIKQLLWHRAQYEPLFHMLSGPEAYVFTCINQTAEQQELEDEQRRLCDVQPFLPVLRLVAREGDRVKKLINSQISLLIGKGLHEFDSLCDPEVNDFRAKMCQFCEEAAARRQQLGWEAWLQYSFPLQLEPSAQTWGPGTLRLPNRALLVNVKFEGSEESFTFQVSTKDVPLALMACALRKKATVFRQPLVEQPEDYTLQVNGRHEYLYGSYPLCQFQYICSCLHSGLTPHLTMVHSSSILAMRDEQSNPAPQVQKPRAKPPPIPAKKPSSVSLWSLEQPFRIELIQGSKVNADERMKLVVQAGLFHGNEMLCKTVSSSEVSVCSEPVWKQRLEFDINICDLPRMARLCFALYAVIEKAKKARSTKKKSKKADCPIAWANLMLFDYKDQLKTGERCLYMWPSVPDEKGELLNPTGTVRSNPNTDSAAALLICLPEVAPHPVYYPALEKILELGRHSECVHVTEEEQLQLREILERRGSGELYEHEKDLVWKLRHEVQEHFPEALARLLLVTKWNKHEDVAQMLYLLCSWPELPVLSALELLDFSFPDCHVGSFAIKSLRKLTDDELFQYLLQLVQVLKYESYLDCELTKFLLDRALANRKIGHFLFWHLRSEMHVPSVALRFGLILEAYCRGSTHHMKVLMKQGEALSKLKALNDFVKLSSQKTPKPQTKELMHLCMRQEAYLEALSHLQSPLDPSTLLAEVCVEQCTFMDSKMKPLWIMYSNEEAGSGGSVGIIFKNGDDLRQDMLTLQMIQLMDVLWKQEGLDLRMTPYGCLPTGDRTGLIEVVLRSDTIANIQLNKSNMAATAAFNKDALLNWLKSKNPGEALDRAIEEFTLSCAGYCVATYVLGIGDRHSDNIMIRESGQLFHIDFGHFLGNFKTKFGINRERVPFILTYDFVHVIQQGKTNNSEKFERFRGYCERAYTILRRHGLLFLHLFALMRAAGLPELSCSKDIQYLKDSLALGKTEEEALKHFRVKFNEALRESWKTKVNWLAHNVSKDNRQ
Chain of MAPK14 (Q16539 whole entry, looked up): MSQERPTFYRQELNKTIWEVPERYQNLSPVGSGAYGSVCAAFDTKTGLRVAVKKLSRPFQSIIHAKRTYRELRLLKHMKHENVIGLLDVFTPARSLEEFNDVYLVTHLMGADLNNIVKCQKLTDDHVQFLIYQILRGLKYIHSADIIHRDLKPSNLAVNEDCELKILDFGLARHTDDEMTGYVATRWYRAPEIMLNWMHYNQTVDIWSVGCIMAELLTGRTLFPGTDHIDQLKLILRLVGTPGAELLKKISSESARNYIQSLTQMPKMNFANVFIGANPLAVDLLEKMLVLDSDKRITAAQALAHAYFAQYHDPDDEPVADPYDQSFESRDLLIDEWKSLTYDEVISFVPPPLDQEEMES

SMILES | IC50 (PIK3CG) [µM] | IC50 (PIK3CD (Human)) [µM] | IC50 (PIK3CA (human)) [µM] | also measured
O=c1cc(-c2ccncc2)oc2c(OCc3ccccc3)cccc12 | 10 | – | – | –
Cc1cc(CNc2ccccc2)c2oc(-c3ccncc3)cc(=O)c2c1 | 10 | 10 | – | –
O=c1cc(-c2ccncc2)[nH]c2c(-c3ccccc3)cccc12 | – | 10 | – | –
Cc1cc(C(C)Nc2ccccn2)c2nc(N3CCOCC3)cc(=O)n2c1 (stereo not drawn) | – | – | > 5 | –
Cc1cc(C(C)n2c(C(F)(F)F)nc3ccccc32)c2oc(-c3ccncc3)cc(=O)c2c1 (stereo not drawn) | 10 | 10 | – | –
Cc1cc(C(C)Nc2cccc(C(F)(F)F)c2)c2oc(-c3ccncc3)cc(=O)c2c1 (stereo not drawn) | 10 | – | – | –
Cc1cc(C(C)Nc2ccccc2)c2oc(-c3ccncc3)cc(=O)c2c1 (stereo not drawn) | – | – | – | IC50 (PIK3CB (Human) [1]): 0.005 µM; IC50 (PIK3CB (Human) [2]): 0.1 µM; IC50 (PIK3CB (Human) [3]): 5 µM; IC50 (PIK3CB (Human) [4]): 0.5 µM
Cc1cc(C(C)Nc2ccc(Cl)c(Cl)c2)c2nc(N3CCOCC3)cc(=O)n2c1 (stereo not drawn) | – | – | > 5 | –
Cc1cc(C(C)Nc2cccc(Cl)c2)c2nc(N3CCOCC3)cc(=O)n2c1 (stereo not drawn) | – | – | > 5 | –
Cc1cc(COc2ccccc2)c2oc(-c3ccncc3)cc(=O)c2c1 | 10 | – | – | –
CC(=O)Nc1ccccc1NCc1cc(C)cc2c(=O)cc(-c3ccncc3)oc12 | 5 | 1 | – | –
Cc1cc(C(C)Nc2ccc(Cl)cc2)c2nc(N3CCOCC3)cc(=O)n2c1 (stereo not drawn) | – | – | > 5 | –
Cc1cc(C(C)Oc2ccccc2)c2oc(-c3ccncc3)cc(=O)c2c1 (stereo not drawn) | 20 | – | – | –
Cc1cc(C(C)Nc2ccccc2)c2nc(N3CCOCC3)cc(=O)n2c1 (stereo not drawn) | – | – | > 5 | IC50 (EGFR): > 10 µM; IC50 (MAPK14): > 10 µM; IC50 (CDK2): > 10 µM
Cc1cccc(NC(C)c2cc(C)cn3c(=O)cc(N4CCOCC4)nc23)c1 (stereo not drawn) | – | – | > 5 | –

Second part, led by results:

IC50 (PIK3CG) [µM] | IC50 (PIK3CD (Human)) [µM] | IC50 (PIK3CA (human)) [µM] | SMILES | also measured
– | 0.2 | – | O=c1cc(-c2ccncc2)oc2c(NCc3ccccc3)cccc12 | –
– | – | > 5 | Cc1cc(CN(C)c2ccccc2)c2nc(N3CCOCC3)cc(=O)n2c1 | –
15 | 0.5 | – | CC(Nc1ccccc1N)c1cccc2c(=O)cc(-c3ccncc3)oc12 (stereo not drawn) | IC50 (PIK3CB (Human) [1]): 0.078 µM; IC50 (PIK3CB (Human) [2]): 0.2 µM; IC50 (PIK3CB (Human) [3]): 20 µM; IC50 (PIK3CB (Human) [4]): 0.25 µM
– | – | > 5 | Cc1cc(C(C)Nc2cc(F)cc(F)c2)c2nc(N3CCOCC3)cc(=O)n2c1 (stereo not drawn) | –
20 | 1 | – | Cc1cc(N[C@H](C)c2ccccc2)c2nc(-c3ccncc3)cc(=O)n2c1 | –
> 10 | > 10 | – | Cc1cc(-c2ccccc2)c2nc(-c3ccncc3)cc(=O)n2c1 | –
– | – | > 5 | Cc1cc(C(C)Nc2cccc(C(F)(F)F)c2)c2nc(N3CCOCC3)cc(=O)n2c1 (stereo not drawn) | –

From the Kinase Knowledgebase extract (Sharma et al. 2016)
